≈ marks a conversion by molar mass, not a printed value.
Key:
[1] = test system: KB; assay: Cytotoxicity against human KB cells; type: functional; settings: read-out: MIC
[2] = test system: L1210; assay: Cytotoxicity against mouse L1210 cells; type: functional, cell-based
[3] = test system: Cryptococcus neoformans; assay: Antimicrobial activity against Cryptococcus neoformans; type: functional
[4] = test system: Micrococcus luteus; assay: Antimicrobial activity against Micrococcus luteus; type: functional
[5] = test system: Trichophyton mentagrophytes; assay: Antimicrobial activity against Trichophyton mentagrophytes; type: functional

MIC [3] | MIC [4] | MIC [5] | Structure (SMILES) | cytotoxic concentration [1] | IC50 [2]
 |  |  | CC(C)=CCC[C@](C)(O)[C@H]1C[C@@]2(CC=C(C)C)C(=O)C(C)(C)C(=O)C(C(=O)C(C)C)=C2O1 [PETIOLIN M] | > 10 µg/mL | > 10 µg/mL
 |  |  | Cc1c(O)c(C(=O)C(C)C)c2c3c1OC(C)(C)[C@@H]1CC[C@@](C)(C[C@@H]31)O2 [PETIOLIN K] | > 10 µg/mL | > 10 µg/mL
16 µg/mL (≈ 44.1 µM) | 8 µg/mL (≈ 22.1 µM) | 16 µg/mL (≈ 44.1 µM) | CC(C)=CCC[C@]1(C)Oc2c(c(O)c(C)c(O)c2C(=O)C(C)C)C[C@H]1O [PETIOLIN J] | > 10 µg/mL | > 10 µg/mL
 |  |  | CCC(C)C(=O)C1=C2O[C@@H]([C@@](C)(O)CCC=C(C)C)C[C@]2(CC=C(C)C)C(=O)C(C)(C)C1=O (stereo partly specified) [PETIOLIN L] | > 10 µg/mL | > 10 µg/mL
